According to patent publication US20150176022A1, “HERBICIDE-RESISTANT SUNFLOWER PLANTS, POLYNUCLEOTIDES ENCODING HERBICIDE=RESISTANT ACETO HYDROXY ACID SYNTHASE LARGE SUBUNIT PROTEINS, AND METHODS OF USE” (priority 2013, published 2015):

Columns and labels:
[1] = tested on: S4897 sunflower plants; assay: Greenhouse spray treatment with imazamox (FIG. 3, 4); type: in vivo, Helianthus annuus; details: S4897 versus IMISUN-1 and wild-type; imazamox 100 or 200 g ai/ha; evaluated 17 days after application
Procedure: (§1) The S4897 and IMISUN-1 sunflower plants were spray-treated with imazamox at rate of 200 g ai/ha. […] The photograph was taken a few days after the plants were spray treated.
(§2) FIG. 4 is graphical illustration of herbicide injury in a greenhouse test following the spray treatment of IMISUN-1, wild-type, and S4897 sunflower plants with imazamox at either 100 (light columns) or 200 g ai/ha (dark columns). […] Herbicide injury was evaluated 17 days after the imazamox application.

[2] = tested on: wild-type sunflower plants; assay: as above; type: in vivo, Helianthus annuus; details: wild-type control plants, imazamox at either 100 or 200 g ai/ha
Procedure: as §1, §2

[3] = tested on: AHAS; assay: AHAS activity analysis, inhibition by herbicide (Example 5); type: biochemical, Helianthus annuus; details: AHAS of S4897 versus a Clearfield sunflower and a conventional non Clearfield variety; higher concentration of imazamox (FIG. 7)
Procedure: AHAS activity analysis was also conducted by selecting actively growing young leaves from plants that were not sprayed with herbicide at approximately four weeks after planting.

[4] = tested on: Clearfield-Sunflower variety C; assay: Greenhouse spray test, injury rating (Example 5); type: in vivo, Helianthus annuus; details: 14 DAT, scale 0=no injury to 9=dead plant
From the text: (§3) Sunflower lines S4897, Clearfield® sunflower varieties A, B, C and a conventional non-Clearfield variety were sprayed with three rates of imazamox (Raptor™), 100, 200 and 300 gm ai/ha plus 0.5% Sun It II and two rates of imazapyr (Arsenal™) 160 and 360 gm ai/ha plus 0.5% Sun It II when the plants were at the two to three leaf stage. Ratings were taken at 14 days after application (DAT) for injury. Injury was rated on a scale from 0 to 9 where 0=no injury to 9=dead plant. Twelve plants were sprayed per herbicide/rate treatment. Statistical analysis was conducted with STATGRAPHICS Plus 5.0 by using ANOVA and LSD procedures.
(§4) After plants were sprayed, it was realized that a height difference between S4897 and other sunflower varieties would have impacted the actual herbicide dose that was delivered. The spray boom height had been calibrated against S4897 and since the other varieties were taller and closer to the boom they would have received a greater dose of herbicide. Rates were recalibrated for the other varieties to determine the approximate dose they would have received. Assessments were made as presented in Table 2 since it was not possible to make a direct rate comparison due to the effect of the height. For example injury scores were compare for S4897 treated imazamox rate 100 gm ai/ha to the other varieties treated at 75 gm ai/ha. The treatment dose of 300 gm ai/ha for line S4897 was equivalent to the treatment of 200 gm ai/ha for the other varieties, which […].

[5] = tested on: Sunflower line S4897; assay: Greenhouse spray test, injury rating (Example 5); type: in vivo, Helianthus annuus; details: 14 DAT, scale 0=no injury to 9=dead plant
From the text: as §3, §4

[6] = tested on: Clearfield-Sunflower variety A; assay: Greenhouse spray test, injury rating (Example 5); type: in vivo, Helianthus annuus; details: 14 DAT, scale 0=no injury to 9=dead plant
From the text: as §3, §4

[7] = tested on: Conventional non-Clearfield sunflower variety; assay: Greenhouse spray test, injury rating (Example 5); type: in vivo, Helianthus annuus; details: 14 DAT, scale 0=no injury to 9=dead plant
From the text: as §3, §4

[8] = tested on: Clearfield-Sunflower variety B; assay: Greenhouse spray test, injury rating (Example 5); type: in vivo, Helianthus annuus; details: 14 DAT, scale 0=no injury to 9=dead plant
From the text: as §3, §4

[9] = tested on: S4897 plants; assay: Field trials in Argentina, resistance to imazapic (Example 4); type: in vivo, Helianthus annuus; details: S4897 versus IMISUN-1 (Ala190-to-Val), single row plots, no data presented
Procedure: In field trials in Argentina, S4897 plants were tested for resistance to imazapic. […] This trial had single row plots and was treated on a windy day, so the actual herbicide dose reaching the plants was likely less than was applied.

[10] = Imazamox 300 gm ai/ha (dose received)

COCc1cnc(C2=NC(C)(C(C)C)C(=O)N2)c(C(=O)O)c1 (stereo not shown) [imazamox]
herbicide injury (resistance or tolerance) [1]: significantly greater resistance or tolerance
survival following spray treatment [2]: did not survive
inhibition of AHAS activity [3]: less inhibition at the higher concentration of imazamox as compared to a Clearfield® sunflower and conventional non Clearfield variety
Injury ([4]; Imazamox 75 gm ai/ha): 1.8 b
Injury ([4]; Imazamox 150 gm ai/ha): 2.9 b
Injury [4, 10]: 4.6 b
Injury ([5]; Imazamox 100 gm ai/ha): 0.5 a
Injury ([5]; Imazamox 200 gm ai/ha): little to no injury
Injury ([5]; Imazamox 200 gm ai/ha, listed as Imazamox): 0.8 a
Injury ([5]; Imazamox 300 gm ai/ha): very little injury
Injury ([5]; Imazamox 300 gm ai/ha, listed as Imazamox): 0.8 a
Injury ([6]; Imazamox 75 gm ai/ha): 4.3 c
Injury ([6]; Imazamox 150 gm ai/ha): significantly injured and had stopped growing
Injury ([6]; Imazamox 150 gm ai/ha, listed as Imazamox): 4.6 c
Injury [6, 10]: 6.5 days
Injury ([7]; Imazamox 75 gm ai/ha): 7.2 days
Injury ([7]; Imazamox 150 gm ai/ha): 8.2 days
Injury [7, 10]: 8.7 e
Injury ([8]; Imazamox 75 gm ai/ha): 1.9 b
Injury ([8]; Imazamox 150 gm ai/ha): 4.8 c
Injury [8, 10]: 5.3 c

Cc1cnc(C2=NC(=O)C(C)(C(C)C)N2)c(C(=O)O)c1 (stereo not shown) [imazapic]
resistance (tolerance) to imazapic [9]: clearly superior to the IMISUN-1
